Experimental data: patent publication US20250049904A1, “IMMUNOSTIMULATORY COMPOSITIONS” (VICTORIA LINK LIMITED, priority 2021, published 2025)

Legend:
[1] = test system: Plasmodium berghei sporozoites; assay: Mouse model of malaria infection: sporozoite challenge after vaccination; type: in vivo
Procedure: FIG. 3 provides a graphical representation showing that LPX-mRNA vaccines containing CI058 induce functional liver TRM responses that protect from Plasmodium berghei infection. The function of TRM induced with LPX vaccines containing CI058 was tested in a mouse model of malaria infection, which is known to require liver TRM cells to provide protection against infection. Analysis was in C57BL/6 mice with LPX-mOVA versus LPX-mOVA-CI058 vaccines, with prior transfer of OT-I cells to enhance T cell precursor frequency, and challenge was with P. berghei sporozoites from a parasite strain modified to express OVA. (A) Groups of mice (n=12-15) were subject to vaccination only. Percentages of TRM, TEM and TCM OT-I cells in each treatment group determined in liver 30 days later, assessed as in FIG. 1. Black bars: TRM cells; white bars: TEM cells; grey bars: TCM cells. […] (D) Groups of mice were subject to vaccination followed by challenge with 200 OVA-expressing P. berghei sporozoites 30 days later, and parasitemia was measured 6, 7,8, 10 and 12 days after infection. […] Groups of mice (n=12-15) were subject to vaccination, and then percentages of TRM cells, TEM cells and TCM cells in each treatment group were evaluated in liver 30 days later by flow cytometry using MHC/peptide tetramers containing a defined CD8 T cell epitope from RLP6, using gating strategy in FIG. 2. […]

liver TRM cells = assay: LPX-mOVA-CI058 vaccination of NKT cell-deficient mice; liver TRM cells; type: in vivo, TRAJ18-deficient mice; conditions: LPX vaccine with CI058, 28 days after vaccination
Procedure: Groups (n=3) of C57BL/6 mice or TRAJ18-deficient mice were vaccinated with LPX-mOVA-CI058, or injected with PBS vehicle. The TRAJ18-deficient strain cannot complete the TCR rearrangement required to form the TCR-alpha chain used by type I NKT cells, and therefore are deficient in these cells, while the remaining T cell repertoire is largely intact. No prior transfer of OT-I cells was conducted, so results reflect endogenous T cell responses to vaccination. Mean number of TRM cells in liver 28 days after vaccination for each treatment group (±SEM) are shown; dots represent individual mice. **P<0.01,
C57BL/6 (B6), OT-I^1, and TRAJ18^−/− mice were bred and maintained at the Department of Microbiology and Immunology, The University of Melbourne, or the BRU, Malaghan Institute of Medical Research, New Zealand. […]
Lymphocytes were stained with monoclonal antibodies for: CD8a (53-6.7), Ly5.1 (A20), CD44 (IM7), CXCR6 (SA051D1), CX3CR1 (SA011F11), from BioLegend (Australian Biosearch, Karrinyup, WA. Australia), and CD62L (MEL-14) and CD69 (H1.2F3), from eBioscience (Jomar Life Research, Scoresby, VIC, Australia). […] Single-color positive control samples were used to adjust compensation and cells were analyzed by flow cytometry on a LSR Fortessa (BD Biosciences), or LSRII SORP using Flowjo software (Tree Star Inc.).

CCCCCCCCCCCCCCCCCCCCCCCCCC(=O)N[C@@H](CO[C@H]1O[C@H](CSCC(=O)Nc2ccc(C3=C4C(C)=CC(C)=[N+]4[B-](F)(F)n4c(C)cc(C)c43)cc2)[C@H](O)[C@H](O)[C@H]1O)[C@H](O)[C@H](O)CCCCCCCCCCCCCC [CI058, (2S,3S,4R)-1-(6-Deoxy-6-((2-((4-(5,5-difluoro-1,3,7,9-tetramethyl-5H-4λ4,5λ4-dipyrrolo[1,2-c:2′,1′-f][1,3,2]diazaborinin-10-yl)phenyl)amino)-2-oxoethyl)thio)-α-D-galactopyranosyloxy)-2-hexacosanoylamino-3,4-octadecandiol]
protection against sporozoite challenge ([1]; 200 OVA-expressing P. berghei sporozoites 30 days after LPX-mOVA vaccination, OT-I transfer): provide protection against challenge with P. berghei sporozoites | blood parasitemia ([1]; after challenge with OVA-expressing P. berghei sporozoites): significantly limit blood parasitemia | liver TRM cell accumulation in NKT cell-deficient mice (liver TRM cells): no liver TRM cell accumulation is induced
